Columns and labels:
[1] = GSH reactivity in phosphate buffer assessed as half life at 20 uM after 1 hr in presence of L-glutathione by LC-MS/MS analysis; format: physicochemical; conditions: phosphate buffer with L-glutathione
[2] = Covalent reactivity with N-alpha-acetyl-L-lysine assessed as half life; format: physicochemical; conditions: N-alpha-acetyl-L-lysine solution
[3] = Apparent permeability across apical to basolateral side in RRCK cells after […] by HPLC analysis; format: ADME, cell-based, Canis lupus familiaris, MDCKII-LE; conditions: dog, MDCK
[4] = Half life in human whole blood; format: ADME, tissue-based
[5] = Half life in rat whole blood; format: ADME, tissue-based
[6] = Clearance in rat at 1 mg/kg, iv administered as single dose by LC-MS/MS analysis; format: ADME, organism-based; conditions: in vivo
[7] = Drug level in human liver microsomes treated with 10 uM N-(6-(7H-Pyrrolo[2,3-d]pyrimidin-4-yl)-2,3-dihydro-1H-inden-1-yl)cyanamide (11), (S)-N-(6-(7H-Pyrrolo[2,3-d]pyrimidin-4-yl)-2,3-dihydro-1H-inden-1-yl)cyanamide assessed as compound formation at 10 uM in presence of GSH and NADPH after 15 to 45 mins by LC-MS/MS analysis; format: ADME, microsome
[8] = Half life in rat at 1 mg/kg, iv co-administered with CYP450 inhibitor ABT by LC-MS/MS analysis; format: ADME, organism-based; conditions: in vivo
[9] = AUC in rat at 3 mg/kg, po administered as single dose by LC-MS/MS analysis; format: ADME, organism-based; conditions: in vivo
[10] = Drug metabolism in human liver microsomes assessed as 2-((R)-3-(N-((S)-6-(7H-pyrrolo[2,3-d]pyrimidin-4-yl)-2,3-dihydro-1H-inden-1-yl)carbamimidoylthio)-2-aminopropanamido)acetic acid metabolite formation at 10 uM in presence of GSH and NADPH after 15 to 45 mins by LC-MS/MS analysis; format: ADME, microsome
[11] = Drug metabolism in human liver microsomes assessed as (S)-4-amino-6-(3-cyanamido-2,3-dihydro-1H-inden-5-yl)pyrimidine-5-carboxylic acid metabolite formation at 10 uM in presence of GSH and NADPH after 15 to 45 mins by LC-MS/MS analysis; format: ADME, microsome
[12] = Volume of distribution at steady state in rat at 1 mg/kg, iv co-administered with CYP450 inhibitor ABT by LC-MS/MS analysis; format: ADME, organism-based; conditions: in vivo, read-out: Vdss
[13] = AUC in rat at 1 mg/kg, iv co-administered with CYP450 inhibitor ABT by LC-MS/MS analysis; format: ADME, organism-based; conditions: in vivo
[14] = Oral bioavailability in rat at 3 mg/kg administered as single dose by LC-MS/MS analysis; format: ADME, organism-based; conditions: in vivo
[15] = AUC in rat at 1 mg/kg, iv administered as single dose by LC-MS/MS analysis; format: ADME, organism-based; conditions: in vivo
[16] = Clearance in rat at 1 mg/kg, iv co-administered with CYP450 inhibitor ABT by LC-MS/MS analysis; format: ADME, organism-based; conditions: in vivo
[17] = Half life in rat at 1 mg/kg, iv administered as single dose by LC-MS/MS analysis; format: ADME, organism-based; conditions: in vivo
[18] = Apparent intrinsic clearance in human liver microsomes; format: ADME, microsome; conditions: read-out: CLH(app)
[19] = Apparent intrinsic clearance in rat liver microsomes; format: ADME, microsome; conditions: read-out: CLH(app)
[20] = Volume of distribution at steady state in rat at 1 mg/kg, iv administered as single dose by LC-MS/MS analysis; format: ADME, organism-based; conditions: in vivo, read-out: Vdss
[21] = Drug metabolism in human liver microsomes assessed as (S)-1-(6-(7H-pyrrolo[2,3-d]pyrimidin-4-yl)-2,3-dihydro-1H-inden-1-yl)urea metabolite formation at 10 uM in presence of GSH and NADPH after 15 to 45 mins by LC-MS/MS analysis; format: ADME, microsome

N#CNC1CCOc2ccc(-c3ncnc4[nH]ccc34)cc21 (stereo unspecified)
half-life at 20 µM [1]: 0.6 h

Cn1nccc1S(=O)(=O)N[C@@H]1C[C@H](NC#N)c2cc(-c3ncnc4[nH]ccc34)ccc21
half-life at 20 µM [1]: 0.367 h

C1CCNCC1 [PIPERIDINE]
half-life [2]: 11.1 h

COCCc1c[nH]c2ncnc(-c3ccc4c(c3)N(C#N)CC(F)(F)O4)c12
half-life at 20 µM [1]: > 2 h
Papp A→B at […] [3]: 14 ×10⁻⁶ cm/s

N#CN[C@H]1C[C@@H](NS(=O)(=O)c2cccc(F)c2)c2ccc(-c3ncnc4[nH]ccc34)cc21
half-life at 20 µM [1]: 1.33 h
Papp A→B at […] [3]: 10 ×10⁻⁶ cm/s

CS(=O)(=O)N[C@@H]1C[C@H](NC#N)c2cc(-c3ncnc4[nH]ccc34)ccc21
half-life at 20 µM [1]: 0.383 h
half-life [4]: 3.47 h
half-life [5]: 0.517 h
Papp A→B at […] [3]: < 1 ×10⁻⁶ cm/s

COCCc1c[nH]c2ncnc(-c3ccc4c(c3)C(NC#N)CC4)c12 (stereo unspecified)
half-life at 20 µM [1]: 1.23 h

C=CC(=O)Nc1cccc(-c2ncnc3[nH]cc(CCOC)c23)c1
clearance [6]: 455 mL/min/kg
half-life at 20 µM [1]: 0.933 h
half-life [4]: 2.47 h
half-life [5]: 0.483 h
Papp A→B at […] [3]: 10 ×10⁻⁶ cm/s

NC(=O)N[C@H]1CCc2ccc(-c3ncnc4[nH]ccc34)cc21
Drug metabolism [7]: Metabolite_Detected

N#CN[C@H]1C[C@@H](O)c2ccc(-c3ncnc4[nH]ccc34)cc21
half-life at 20 µM [1]: 0.467 h
half-life [4]: 5.65 h
half-life [5]: 0.333 h
Papp A→B at […] [3]: 2 ×10⁻⁶ cm/s

C[C@@]1(NC#N)CCc2ccc(-c3ncnc4[nH]ccc34)cc21
half-life at 20 µM [1]: > 2 h

N#CN[C@@H]1c2cc(-c3ncnc4[nH]ccc34)ccc2C[C@H]1O
half-life at 20 µM [1]: 0.783 h

CC1(NC#N)CCc2ccc(-c3ncnc4[nH]ccc34)cc21 (stereo unspecified)
half-life at 20 µM [1]: > 2 h

COCCc1c[nH]c2ncnc(-c3ccc4c(c3)N(C#N)CCO4)c12
half-life at 20 µM [1]: > 3.17 h

N=C(N[C@H]1CCc2ccc(-c3ncnc4[nH]ccc34)cc21)SC[C@H](N)C(=O)NCC(=O)O
Drug metabolism [7]: Metabolite_Detected

N#CNC1CCc2ccc(-c3ncnc4[nH]ccc34)cc21 (stereo unspecified)
half-life at 20 µM [1]: 1.12 h

N#CN[C@H]1CCc2ccc(-c3ncnc4[nH]cc(-c5cccc(CO)c5)c34)cc21
half-life at 20 µM [1]: 1.15 h
half-life [4]: 0.8 h
half-life [5]: 0.983 h
Papp A→B at […] [3]: 4 ×10⁻⁶ cm/s

C1CCNC1 [PYRROLIDINE]
half-life [2]: 7.7 h

N#CN[C@@H]1CCc2ccc(-c3ncnc4[nH]ccc34)cc21
half-life at 20 µM [1]: 1.35 h

COc1ccc(S(=O)(=O)N[C@@H]2C[C@H](NC#N)c3cc(-c4ncnc5[nH]ccc45)ccc32)cc1
half-life at 20 µM [1]: 0.583 h

N#CN[C@H]1CCc2ccc(-c3ncnc4[nH]ccc34)cc21
half-life [8]: 0.75 h
AUC [9]: 240 ng·h/mL
clearance [6]: 36 mL/min/kg
Drug metabolism [10]: Metabolite_Detected
Drug metabolism [11]: Metabolite_Detected
Vd [12]: 0.63 L/kg
AUC [13]: 488 ng·h/mL
half-life at 20 µM [1]: 1.15 h
bioavailability [14]: 16%
AUC [15]: 466 ng·h/mL
clearance [16]: 34 mL/min/kg
half-life [4]: > 6 h
half-life [17]: 0.27 h
half-life [5]: 2.5 h
microsomal CLint [18]: 50 µL/min/mg
Papp A→B at […] [3]: 11 ×10⁻⁶ cm/s
microsomal CLint [19]: 100 µL/min/mg
Vd [20]: 0.35 L/kg
Drug metabolism [21]: Metabolite_Detected

C[C@]1(NC#N)CCc2ccc(-c3ncnc4[nH]ccc34)cc21
half-life at 20 µM [1]: > 2 h
half-life [4]: > 6 h
half-life [5]: > 6 h
Papp A→B at […] [3]: 19 ×10⁻⁶ cm/s

CN(C#N)C1CCc2ccc(-c3ncnc4[nH]ccc34)cc21 (stereo unspecified)
half-life at 20 µM [1]: > 3.17 h

N#CN[C@H]1CCOc2ccc(-c3ncnc4[nH]ccc34)cc21
half-life at 20 µM [1]: 0.683 h

COCCc1c[nH]c2ncnc(-c3ccc4c(c3)C(NC#N)CCO4)c12 (stereo unspecified)
half-life at 20 µM [1]: 1.17 h

N#CN[C@H]1CCc2ccc(-c3ncnc4[nH]cc(-c5ccccc5)c34)cc21
half-life at 20 µM [1]: 1.57 h
half-life [4]: 1.02 h
half-life [5]: 1.02 h
Papp A→B at […] [3]: 2 ×10⁻⁶ cm/s

C[C@@H]1Cc2ccc(-c3ncnc4[nH]ccc34)cc2[C@@H]1NC#N
half-life at 20 µM [1]: 1.58 h

C1CNC1 [AZETIDINE]
half-life [2]: 2.59 h

COCCS(=O)(=O)N[C@@H]1C[C@H](NC#N)c2cc(-c3ncnc4[nH]ccc34)ccc21
half-life at 20 µM [1]: 1.17 h

N#CN[C@H]1C[C@@H](NS(=O)(=O)c2cccc(C#N)c2)c2ccc(-c3ncnc4[nH]ccc34)cc21
half-life at 20 µM [1]: 0.4 h
Papp A→B at […] [3]: 6 ×10⁻⁶ cm/s

N#CN[C@H]1C[C@H](O)c2ccc(-c3ncnc4[nH]ccc34)cc21
half-life at 20 µM [1]: 0.667 h

N=C(N[C@H]1CCc2ccc(-c3ncnc4[nH]ccc34)cc21)SC[C@H](NC(=O)CC[C@H](N)C(=O)O)C(=O)NCC(=O)O
Drug metabolism [7]: Metabolite_Detected

C=CC(=O)N1CCOc2ccc(-c3ncnc4[nH]cc(CCOC)c34)cc21
half-life at 20 µM [1]: 0.05 h
half-life [4]: 0.0833 h
half-life [5]: 0.0667 h

N#CN[C@H]1CCc2ccc(-c3ncnc(N)c3C(=O)O)cc21
Drug metabolism [7]: Metabolite_Detected

Reference: ChEMBL document CHEMBL4261650, “Identification of Cyanamide-Based Janus Kinase 3 (JAK3) Covalent Inhibitors” (J Med Chem, 2018)
